Assay results reported in paper PMC8399847, “Hybrid Quinolinyl Phosphonates as Heterocyclic Carboxylate Isosteres: Synthesis and Biological Evaluation against Topoisomerase 1B (TOP1B)” (Pharmaceuticals, 2021).

How the values were obtained:
[1] = tested on: A549 (human lung adenocarcinoma cells); test: CCK-8 cytotoxicity assay, A549; assay type: cell-based; details: A549, 48 h, read-out: Cytotoxicity IC50 Lung A549
Protocol: (§1) The cytotoxicity of the newly synthesized quinolinylphosphonates 7 was evaluated in vitro by testing their antiproliferative activities against several human cancer cell lines: A549 (human lung adenocarcinoma cells), SKOV3 (human ovarian carcinoma), and HEK293 (human embryonic kidney). In order to analyze the selective cytotoxicity facing exclusively cancerous cell lines, cytotoxicity against non-cancerous cell lines (MRC-5, lung fibroblast cells) was also evaluated. Cell counting kit (CCK-8) assay was employed to assess growth inhibition and, cell proliferation inhibitory activities of compounds that are listed in Table 1 as IC50 values. […] According to the data presented in Table 1, in general, all these phosphorated derivatives present higher selective cytotoxicity in the A549 cell line than in the other two cell lines, SKOV3 and HEK293, although slight differences are observed compared to human ovarian carcinoma (SKOV3).
(§2) Cells were cultured according to the supplier’s instructions, A549 (ATCC® CCL-185), SKOV3 (ATCC® HTB-77), HEK293 (CLS GmbH), MRC-5 (ATCC® CCL-171™). Cells were seeded in 96-well plates at a density of 2–2.5 × 10^3 cells per well and incubated overnight in 0.1 mL of media supplied with 10% Fetal Bovine Serum (Lonza, Basel, Switzerland) in a 5% CO2 incubator at 37 °C. On day 2, drugs (concentration between 0.5–50 μM) were added and samples were incubated for 48 h. After treatment, 10 μL of cell counting kit-8 was added to each well for an additional 2 h incubation at 37 °C. The absorbance of each well was determined by an Automatic Elisa Reader System at 450 nm wavelength. CPT was purchased from Sigma-Aldrich and used as a positive control.

[2] = tested on: HEK293 (human embryonic kidney); test: CCK-8 cytotoxicity assay, HEK293; assay type: cell-based; details: HEK293, 48 h, CCK-8, 50% growth inhibition
Protocol: as §1, §2

[3] = CCK-8 cytotoxicity assay, MRC-5 non-cancerous cells; assay type: cell-based; details: human, MRC-5 non-malignant lung fibroblasts
Protocol: as §1, §2

[4] = tested on: murine splenocytes; test: Splenocyte viability, Alamar Blue; assay type: cell-based, BALB/c mice; details: for IC50: Mus musculus, Splenocyte, read-out: IC50 Splenocites; for SI (selectivity index): ratio IC50 splenic cells / EC50 amastigotes
Protocol: The viability of splenocytes cells against the different compounds was measured using the Alamar Blue staining method (Invitrogen, MA, USA). For this purpose, these cells were obtained following the protocol indicated in the previous section, from uninfected mice. Plots of absorbance of viable cells (obtained following manufacturer’s recommendations of Alamar Blue) vs compounds concentration were used to calculate CC50 values. Plots were fitted by nonlinear analysis using the Sigma Plot 10.1 statistical package. The assays were performed by triplicate.
The selectivity index for each compound was calculated as the ratio between the IC50 value for splenic cells and the EC50 value for amastigotes.

[5] = tested on: L. infantum promastigotes; test: In vitro iRFP-L. infantum promastigotes viability assay; assay type: cell-based; details: Leishmania infantum; 96 h exposure, EC50 ± SD
Protocol: The effect of the new quinolinylphosphonate derivatives 7 synthesized was assessed on both free-living promastigotes and intramacrophage amastigotes of L. infantum as it is described in experimental protocols. Primary cultures of intramacrophage amastigotes were obtained from splenic explants from 6-weeks infected Balb/c mice with L. infantum-iRFP promastigotes. The infrared fluorescence emitted by both stage forms of the parasite was used as viability criterium, using 0.5% DMSO as negative control (100% viability) and […] AMB as a positive control (0% viability).
A genetically modified strain of L infantum BCN 150, expressing iRFP protein from Rhodopseudomonas palustris bacteriophytochrome (iRFP-L. infantum), was used to obtain the EC50 values of the different compounds against promastigotes, through the detection of the near-infrared radiation emitted by living parasites exposed to tested molecules. Thus, the viability of promastigotes was calculated after recording their fluorescence at 708 nm in an Odyssey (Li-Cor, NE, USA) infrared imaging.
iRFP-L. infantum promastigotes were cultured using M199 medium (Gibco, Thermo Fisher Scientific, MA, USA), supplemented with 25 mM 4-(2-hydroxyethyl)-1-piperazineethanesulfonic acid (HEPES) pH 6.9, […] hemin, 10 mM glutamine, 0.1 mM adenosine, 0.01 mM folic acid, 1× RPMI 1640 vitamin mix (Sigma, Darmstadt, Germany), 10% (v/v) heat-inactivated foetal bovine serum (Gibco, Thermo Fisher Scientific, MA, USA), 50 U/mL penicillin and 50 µg/mL streptomycin. The assay was carried out, seeding 1 × 10^6 cells/mL of iRFP-L. infantum promastigotes into 96-well optical bottom black plates (Thermo Scientific, MA, USA) along with different concentrations of compound to each well. The final concentration of DMSO, the solvent used to prepare the stock solutions of compounds, was never higher than 0.1%. All of the compounds’ concentrations and controls were assayed by triplicate.

Row | SMILES | IC50 [1] [µM] | IC50 [2] [µM] | IC50 at 48 h [3] [µM] | IC50 [4] [µM] | SI (selectivity index) [4] | EC50 [5] [µM] | melting point [°C]
1 | CCOP(=O)(OCC)c1cccc2c(-c3ccccc3)cc(-c3ccccc3)nc12 [7a, Diethyl (2,4-diphenylquinolin-8-yl)phosphonate] | 2.26 ± 0.59 | 27.3 ± 2.22 | > 50 | 3.61 ± 0.45 | 0.9 | 0.91 ± 0.04 | 118 to 120
2 | CCOP(=O)(OCC)c1cccc2c(-c3ccccc3)cc(-c3ccc(F)cc3)nc12 [7b, Diethyl (4-Phenyl-2-(fluorophenyl)quinolin-8-il) phosphonate] | 2.16 ± 0.29 | 43 ± 4.65 | > 50 | 12.2 ± 1.77 | 0.8 | 7.63 ± 0.76 | 116 to 118
3 | CCOP(=O)(OCC)c1cccc2c(-c3ccccc3)cc(-c3ccc(OC)cc3)nc12 [7c, Diethyl (2-(4-methoxyphenyl)-4-phenylquinolin-8-yl)phosphonate] | 12.6 ± 1.3 | 38.3 ± 8.9 | > 50 | 15.9 ± 1.65 | 1.9 | 9.46 ± 1.67 | 120 to 122
4 | CCOP(=O)(OCC)c1cccc2c(-c3ccccc3)cc(-c3ccccc3OC)nc12 [7d, Diethyl (2-(2-methoxyphenyl)-4-phenylquinolin-8-yl)phosphonate] | 12.3 ± 4.1 | > 50 | > 50 | 30.1 ± 6.05 | 1.5 | 11.4 ± 0.62 | 121 to 123
5 | CCOP(=O)(OCC)c1cccc2c(-c3ccccc3)cc(-c3ccc4ccccc4c3)nc12 [7e, Diethyl (2-(naphthalen-2-yl)-4-phenylquinolin-8-yl)phosphonate] | 3.18 ± 0.27 | 48.1 ± 6.39 | > 50 | 51.6 ± 1.52 | 2.5 | 20.4 ± 1.57 | 135 to 137
6 | CCOP(=O)(OCC)c1cccc2c(-c3ccccc3)cc(-c3cccc4ccccc34)nc12 [7f, Diethyl (2-(naphthalen-1-yl)-4-phenylquinolin-8-yl)phosphonate] | 2.66 ± 0.16 | 35.7 ± 3.13 | > 50 | 12.2 ± 1.49 | 0.6 | 20.6 ± 2.19 | 140 to 142
7 | CCOP(=O)(OCC)c1cccc2c(-c3ccc(F)cc3)cc(-c3ccccc3)nc12 [7g] | 2.27 ± 0.32 | 24.4 ± 3.46 | > 50 | 33.9 ± 7.98 | 2.8 | 16.1 ± 1.94 | 172 to 174
8 | CCOP(=O)(OCC)c1cccc2c(-c3ccc(F)cc3)cc(-c3ccc(F)cc3)nc12 [7h, Diethyl (2,4-bis(4-fluorophenyl)quinolin-8-yl)phosphonate] | 3.07 ± 0.22 | 15.7 ± 1.74 | > 50 | 20.3 ± 7.49 | 0.8 | 8.43 ± 0.92 | 121 to 123
9 | CCOP(=O)(OCC)c1cccc2c(-c3ccc(F)cc3)cc(-c3ccc(F)c(F)c3)nc12 [7i, Diethyl (2-(3,4-difluorophenyl)-4-(4-fluorophenyl)quinolin-8-yl)phosphonate] | 4.64 ± 0.3 | > 50 | > 50 | 20.6 ± 3.11 | 1.5 | 6.35 ± 0.16 | 159 to 161
10 | CCOP(=O)(OCC)c1cccc2c(-c3ccc(C)cc3)cc(-c3ccc(F)cc3)nc12 [7j, Diethyl (2-(4-fluorophenyl)-4-(p-tolyl)quinolin-8-yl)phosphonate] | 0.83 ± 0.01 | > 50 | > 50 | 14.5 ± 1.56 | 1.5 | 7.29 ± 0.94 | 139 to 141
11 | CCOP(=O)(OCC)c1cccc2c(-c3ccc(C)cc3)cc(-c3ccc(F)c(F)c3)nc12 [7k, Diethyl (2-(3,4-difluorophenyl)-4-(p-tolyl)quinolin-8-yl)phosphonate] | 2.72 ± 0.37 | 22.3 ± 1.36 | > 50 | 24.1 ± 7.79 | 0.9 | 2.59 ± 0.48 | 133 to 135
12 | CC(C)OP(=O)(OC(C)C)c1cccc2c(-c3ccccc3)cc(-c3ccc(F)cc3)nc12 [7l, Diisopropyl (2-(4-fluorophenyl)-4-phenylquinolin-8-yl)phosphonate] | 5.01 ± 2.7 | 10.1 ± 1.26 | > 50 | 22.1 ± 4.7 | 1.1 | 9.57 ± 0.4 | 107 to 109
13 | CC(C)OP(=O)(OC(C)C)c1cccc2c(-c3ccccc3)cc(-c3ccc(F)c(F)c3)nc12 [7m, Diisopropyl (2-(3,4-difluorophenyl)-4-phenylquinolin-8-yl)phosphonate] | 18.4 ± 1.4 | > 50 | > 50 | 19.8 ± 3.76 | 1.9 | 11.2 ± 0.74 | 127 to 129
14 | CC(C)OP(=O)(OC(C)C)c1cccc2c(-c3ccc(F)cc3)cc(-c3ccc(F)cc3)nc12 [7n, Diisopropyl (2,4-bis(4-fluorophenyl)quinolin-8-yl)phosphonate] | 10.6 ± 1.73 | 15 ± 0.99 | > 50 | 15.3 ± 1.72 | 2.8 | 4.86 ± 0.5 | 113 to 115
15 | CC(C)OP(=O)(OC(C)C)c1cccc2c(-c3ccc(F)cc3)cc(-c3ccc(F)c(F)c3)nc12 [7o, Diisopropyl (2-(3,4-difluorophenyl)-4-(4-fluorophenyl)quinolin-8-yl)phosphonate] | 6.79 ± 3.87 | 21 ± 4.05 | > 50 | 18.6 ± 1.1 | 0.9 | 19.3 ± 1.79 | 144 to 146
16 | Cc1ccc(-c2cc(-c3ccc(F)cc3)nc3c(P(=O)(OC(C)C)OC(C)C)cccc23)cc1 [7p, Diisopropyl (2-(4-fluorophenyl)-4-(p-tolyl)quinolin-8-yl)phosphonate] | 6.84 ± 1.74 | 14.4 ± 1.69 | > 50 | 21.2 ± 3.5 | 0.9 | 5.01 ± 0.35 | 121 to 123
17 | Cc1ccc(-c2cc(-c3ccc(F)c(F)c3)nc3c(P(=O)(OC(C)C)OC(C)C)cccc23)cc1 [7q, Diisopropyl (2-(3,4-difluorophenyl)-4-(p-tolyl)quinolin-8-yl)phosphonate] | 8.24 ± 2.42 | 12.3 ± 0.71 | > 50 | 28.3 ± 9.16 | 2 | 7.46 ± 0.76 | 140 to 142
18 | CCOP(=O)(OCC)c1ccc2nc(-c3ccc(F)cc3)cc(-c3ccccc3)c2c1 [7r, Diethyl (2-(4-fluorophenyl)-4-phenylquinolin-6-yl)phosphonate] | 2.8 ± 1.24 | 36.9 ± 8.06 | > 50 | 28.1 ± 1.23 | 1 | 15.2 ± 1.14 | 137 to 139
